Measurements published in ChEMBL document CHEMBL3045542, “A quantitative structure-activity relationship study of herbicidal analogues of alpha-hydroxy-substituted 3-benzylidenepyrrolidene-2,4-diones” (2006).

Legend:
Assay type in all cases: functional
[1] = tested on: Echinochloa crus-galli; assay: Herbicidal activity against Echinochloa crus-galli (barnyard grass) assessed as inhibition of plant growth at 10 ug/mL by cup test
[2] = tested on: Echinochloa crus-galli; assay: Herbicidal activity against Echinochloa crus-galli (barnyard grass) assessed as inhibition of plant growth at 93.75 g/ha applied as pre-emergence treatment; settings: for inhibition at 93.75 g/ha: Echinochloa crus-galli, pre-emergence
[3] = tested on: Echinochloa crus-galli; assay: Herbicidal activity against Echinochloa crus-galli (barnyard grass) assessed as inhibition of plant growth at 187.5 g/ha applied as pre-emergence treatment; settings: for inhibition at 187.5 g/ha: Echinochloa crus-galli, pre-emergence
[4] = tested on: Echinochloa crus-galli; assay: Herbicidal activity against Echinochloa crus-galli (barnyard grass) assessed as inhibition of plant growth at 750 g/ha applied as pre-emergence treatment; settings: for inhibition at 750 g/ha: Echinochloa crus-galli, pre-emergence
[5] = tested on: Echinochloa crus-galli; assay: Herbicidal activity against Echinochloa crus-galli (barnyard grass) assessed as inhibition of plant growth at 375 g/ha applied as pre-emergence treatment; settings: for inhibition at 375 g/ha: Echinochloa crus-galli, pre-emergence
[6] = tested on: Digitaria sanguinalis; assay: Herbicidal activity against Digitaria sanguinalis (hairy crabgrass) assessed as inhibition of plant growth at 375 g/ha applied as pre-emergence treatment; settings: for inhibition at 375 g/ha: Digitaria sanguinalis, pre-emergence
[7] = tested on: Digitaria sanguinalis; assay: Herbicidal activity against Digitaria sanguinalis (hairy crabgrass) assessed as inhibition of plant growth at 750 g/ha applied as pre-emergence treatment; settings: for inhibition at 750 g/ha: Digitaria sanguinalis, pre-emergence
[8] = tested on: Digitaria sanguinalis; assay: Herbicidal activity against Digitaria sanguinalis (hairy crabgrass) assessed as inhibition of plant growth at 187.5 g/ha applied as pre-emergence treatment; settings: for inhibition at 187.5 g/ha: Digitaria sanguinalis, pre-emergence
[9] = tested on: Digitaria sanguinalis; assay: Herbicidal activity against Digitaria sanguinalis (hairy crabgrass) assessed as inhibition of plant growth at 93.75 g/ha applied as pre-emergence treatment; settings: for inhibition at 93.75 g/ha: Digitaria sanguinalis, pre-emergence
[10] = tested as the Zn salt or complex

COc1ccc(/C(O)=C2\C(=O)CN(C(C)C)C2=O)cc1
inhibition at 10 µg/mL [1]: 80%

Cc1ccccc1/C(O)=C1\C(=O)CN(C(C)C)C1=O
inhibition at 10 µg/mL [1]: 77%

Cc1cccc(/C(O)=C2\C(=O)CN(C(C)C)C2=O)c1
inhibition at 10 µg/mL [1]: 49%

Cc1ccc(/C(O)=C2\C(=O)CN(C(C)C)C2=O)cc1
inhibition at 10 µg/mL [1]: 77%

COc1ccccc1/C(O)=C1\C(=O)CN(C(C)(C)C)C1=O
inhibition at 10 µg/mL [1]: 75%

COc1ccc(/C(O)=C2\C(=O)CN(C(C)(C)C)C2=O)cc1
inhibition at 10 µg/mL [1]: 10% | inhibition at 93.75 g/ha [2]: 0% | inhibition at 187.5 g/ha [3]: 0% | inhibition at 750 g/ha [4]: 14% | inhibition at 375 g/ha [5]: 0%

Cc1ccccc1/C(O)=C1\C(=O)CN(C(C)(C)C)C1=O
inhibition at 10 µg/mL [1]: 64%

Cc1cccc(/C(O)=C2\C(=O)CN(C(C)(C)C)C2=O)c1
inhibition at 10 µg/mL [1]: 5%

Cc1ccc(/C(O)=C2\C(=O)CN(C(C)(C)C)C2=O)cc1
inhibition at 10 µg/mL [1]: 36%

Cc1cccc(/C(O)=C2\C(=O)CN(C)C2=O)c1
inhibition at 10 µg/mL [1]: 25%

CC(C)N1CC(=O)/C(=C(/O)c2ccccc2Cl)C1=O
inhibition at 10 µg/mL [1]: 51%

CC(C)N1CC(=O)/C(=C(/O)c2ccc(Cl)cc2)C1=O
inhibition at 10 µg/mL [1]: 25%

COc1ccccc1/C(O)=C1\C(=O)CN(C(C)C)C1=O
inhibition at 10 µg/mL [1]: 77% | inhibition at 93.75 g/ha [2]: 0% | inhibition at 187.5 g/ha [3]: 0% | inhibition at 750 g/ha [4]: 73% | inhibition at 375 g/ha [5]: 28%

COc1ccc(/C(O)=C2\C(=O)CN(Cc3ccccc3)C2=O)cc1
inhibition at 10 µg/mL [1]: 14%

CCCCCc1ccc(/C(O)=C2\C(=O)CN(C)C2=O)cc1
inhibition at 10 µg/mL [1]: 16%

CN1CC(=O)/C(=C(/O)c2cccc(Oc3ccccc3)c2)C1=O
inhibition at 10 µg/mL [1]: 53%

COc1ccc(C/C(O)=C2/C(=O)CN(C(C)C)C2=O)cc1
inhibition at 10 µg/mL [1]: 5%

COc1ccc(C(=O)C2=C(O)N(C(C)C)CCC2=O)cc1
inhibition at 10 µg/mL [1]: 0%

CCOc1ccc(C(=O)C2=C(O)N(C(C)C)CCC2=O)cc1
inhibition at 10 µg/mL [1]: 15%

COc1ccc(C(=O)C2=C(O)N(C(C)C)CCC2=O)c(OC)c1
inhibition at 10 µg/mL [1]: 6%

COc1ccc(/C([O-])=C2\C(=O)CN(C(C)C)C2=O)c(OC)c1.[Na+]
inhibition (INH) [6]: 100% | inhibition (INH) [7]: 100% | inhibition (INH) [2]: 73% | inhibition (INH) [3]: 100% | inhibition (INH) [4]: 100% | inhibition (INH) [5]: 100% | inhibition (INH) [8]: 90% | inhibition (INH) [9]: 10%

COc1ccc(/C([O-])=C2\C(=O)CN(C(C)C)C2=O)c(OC)c1.COc1ccc(/C([O-])=C2\C(=O)CN(C(C)C)C2=O)c(OC)c1.[Zn+2]
inhibition at 375 g/ha [6, 10]: 100% | inhibition at 750 g/ha [7, 10]: 100% | inhibition (INH) [2]: 72% | inhibition (INH) [3]: 85% | inhibition at 750 g/ha [4, 10]: 100% | inhibition at 375 g/ha [5, 10]: 100% | inhibition at 187.5 g/ha [8, 10]: 82% | inhibition at 93.75 g/ha [9, 10]: 15%

Cc1ccc(/C(O)=C2\C(=O)CN(C(C)C)C2=O)c(C)c1
inhibition at 10 µg/mL [1]: 74%

CC(C)N1CC(=O)/C(=C(/O)c2ccc(C(C)(C)C)cc2)C1=O
inhibition at 10 µg/mL [1]: 28%

CCCCCc1ccc(/C(O)=C2\C(=O)CN(C(C)C)C2=O)cc1
inhibition at 10 µg/mL [1]: 6%

CCCc1ccc(/C(O)=C2\C(=O)CN(C(C)C)C2=O)cc1
inhibition at 10 µg/mL [1]: 27%

CCOc1ccc(/C(O)=C2\C(=O)CN(C(C)C)C2=O)cc1
inhibition at 10 µg/mL [1]: 79% | inhibition (INH) [6]: 77% | inhibition (INH) [7]: 93% | inhibition (INH) [2]: 36% | inhibition (INH) [3]: 95% | inhibition (INH) [4]: 100% | inhibition (INH) [5]: 100% | inhibition (INH) [8]: 66% | inhibition (INH) [9]: 5%

COc1ccc(/C(O)=C2\C(=O)CN(C(C)C)C2=O)c(OC)c1
inhibition at 10 µg/mL [1]: 78% | inhibition (INH) [6]: 95% | inhibition (INH) [7]: 95% | inhibition (INH) [2]: 10% | inhibition (INH) [3]: 56% | inhibition (INH) [4]: 99% | inhibition (INH) [5]: 94% | inhibition (INH) [8]: 84% | inhibition (INH) [9]: 20%

C=CCOc1ccc(/C(O)=C2\C(=O)CN(C(C)C)C2=O)cc1
inhibition at 10 µg/mL [1]: 78% | inhibition at 375 g/ha [6]: 74% | inhibition at 750 g/ha [7]: 79% | inhibition at 93.75 g/ha [2]: 30% | inhibition at 187.5 g/ha [3]: 55% | inhibition at 750 g/ha [4]: 100% | inhibition at 375 g/ha [5]: 95% | inhibition at 187.5 g/ha [8]: 36% | inhibition at 93.75 g/ha [9]: 0%

C=CCOc1ccc(/C(O)=C2\C(=O)CN(C(C)C)C2=O)c(OC)c1
inhibition at 10 µg/mL [1]: 77%

CC(C)Oc1cccc(/C(O)=C2\C(=O)CN(C(C)C)C2=O)c1
inhibition at 10 µg/mL [1]: 9%

CC(C)N1CC(=O)/C(=C(/O)c2ccc(OCc3ccccc3)cc2)C1=O
inhibition at 10 µg/mL [1]: 39%

CCOc1ccc(/C(O)=C2\C(=O)CN(C(C)C)C2=O)c(OCC)c1
inhibition at 10 µg/mL [1]: 26%

CCCOc1ccc(/C(O)=C2\C(=O)CN(C(C)C)C2=O)cc1
inhibition at 10 µg/mL [1]: 73%

CCCCOc1ccc(/C(O)=C2\C(=O)CN(C(C)C)C2=O)cc1
inhibition at 10 µg/mL [1]: 21%

CCCCOc1cccc(/C(O)=C2\C(=O)CN(C(C)C)C2=O)c1
inhibition at 10 µg/mL [1]: 47%
